Experimental data as given in patent US20250255304A1, “HIGHLY TRA[…] CONTROLLING COMPOSITION” (ZM Crop Protection Corporation, priority 2022, published 2025).

What was measured:
Type in all cases: in vivo
[1] = test system: Coptotermes formosanus Shiraki; experiment: Test Example 1: effect of agent on gypsum treated with test agent solution; conditions: dicloromezotiaz 0.023%, imidacloprid 0.1%, fipronil 0.03% test agent solution on gypsum
Method: A test agent solution containing 0.023 parts of dicloromezotiaz was prepared by adding 99.875 parts of water to 0.125 parts of the aqueous suspension composition shown in Formulation Example 1.
In a comparative example, an aqueous suspension composition prepared by adding an agent solution, wherein 99 parts of water was added to 1 part of a flowable containing 10.0 parts of imidacloprid and which contained 0.1 parts of imidacloprid and a drug solution, wherein 299 parts of water was added to 1 part of a flowable containing 9.1 parts of fipronil and which contained 0.03 parts of fipronil, uniformly mixing same was used as a test agent solution of a comparative example.
As the imidacloprid formulation and the fipronil formulation, commercially available termite controlling agents were used and diluted solutions at practical agent concentrations thereof were used as test agent solutions.
Gypsum was cured and spread in a glass petri dish having a diameter of 90 mm, 15 ml of each of the test agent solution of the example and the test agent solution of the comparative example was uniformly dropped on the entire surface of the gypsum. Thereafter, ten workers of Coptotermes formosanus Shiraki were released into the petri dish and the petri dish was covered and left to stand in a thermostatic chamber (25° C./relative humidity 60%).
The number of abnormal termites and the number of dead termites among the released termites (Coptotermes formosanus Shiraki) were observed every one hour from immediately after the release of the termites (Coptotermes formosanus Shiraki) until ten hours passed and the total number of the abnormal termite rate and the dead termite rate was calculated as the abnormal or dead termite rate (%) according to [Expression 1] below and the rates of expression of the effects of the respective agents were compared. Each test agent was prepared in one petri dish as one plot and the test was carried out in two replicates.

[2] = test system: Coptotermes formosanus Shiraki; experiment: Test Example 2: primary transmission treatment effect; conditions: Table 3, dicloromezotiaz 0.023%, fipronil 0.03%, imidacloprid 0.10%, chlorantraniliprole 0.05% solution in soil
Method: (§1) A test agent solution containing 0.023 parts of dicloromezotiaz was prepared by adding 99.875 parts of water to 0.125 parts of the aqueous suspension composition shown in Formulation Example 1. As comparative examples, four types of commercially available neonicotinoid termite controlling agents and four types of slow-acting termite controlling agents shown in Table 2 were diluted with water at practical concentrations to prepare test agent solutions. The “agent concentration (%)” indicates the concentration of the active ingredient contained in each of the composition of the present invention and the termite controlling agents and the “test agent solution concentration (%)” indicates the concentration of the active ingredient in each of the prepared test agent solutions.
(§2) After 1.2 g of each of the test agent solutions of the example and the comparative examples diluted to a predetermined concentration and prepared was added to 4.8 g of soil, 6 g of the mixed soil was spread in a glass petri dish having a diameter of 50 mm and ten workers of Coptotermes formosanus Shiraki were released into the petri dish and exposed to the agent solution for 4 hours.

[3] = test system: Coptotermes formosanus Shiraki; experiment: Test Example 3: extirpation test with dust formulation using simulated termite trails; conditions: active ingredient concentration 0.5%
[4] = test system: Coptotermes formosanus Shiraki; experiment: Test Example 2: secondary transmission treatment effect; conditions: Table 5, dicloromezotiaz 0.023%, fipronil 0.03%, imidacloprid 0.10%, chlorantraniliprole 0.05% solution in soil
Method: as §1, §2

N#Cc1nn(-c2c(Cl)cc(C(F)(F)F)cc2Cl)c(N)c1[S+]([O-])C(F)(F)F (stereo not shown) [Fipronil]
Abnormal or dead termite rate (%) ([1]; time elapsed 1 h): 18% | Abnormal or dead termite rate (%) ([1]; time elapsed 2 h): 36% | Abnormal or dead termite rate (%) ([1]; time elapsed 3 h): 52% | Abnormal or dead termite rate (%) ([1]; time elapsed 4 h): 100% | Abnormal or dead termite rate (%) ([1]; time elapsed 5 h): 100% | Abnormal or dead termite rate (%) ([1]; time elapsed 6 h): 100% | Abnormal or dead termite rate (%) ([1]; time elapsed 7 h): 100% | Abnormal or dead termite rate (%) ([1]; time elapsed 8 h): 100% | Abnormal or dead termite rate (%) ([1]; time elapsed 9 h): 100% | Abnormal or dead termite rate (%) ([1]; time elapsed 10 h): 100% | Abnormal or dead termite rate (%) ([2]; after 1 day): 82% | Abnormal or dead termite rate (%) ([2]; after 3 days): 95% | Abnormal or dead termite rate (%) ([2]; after 7 days): 100% | Abnormal or dead termite rate (%) ([2]; after 14 days): 100% | Abnormal or dead termite rate (%) ([2]; after 21 days): 100% | Abnormal or dead termite rate (%) ([3]; 1 h): 0% | Abnormal or dead termite rate (%) ([3]; 2 h): 5% | Abnormal or dead termite rate (%) ([3]; 3 h): 50% | Abnormal or dead termite rate (%) ([3]; 4 h): 95% | Abnormal or dead termite rate (%) ([3]; 5 h): 95% | Abnormal or dead termite rate (%) ([3]; 6 h): 100% | Abnormal or dead termite rate (%) ([3]; 7 h): 100% | Abnormal or dead termite rate (%) ([3]; 1 day): 100% | Abnormal or dead termite rate (%) ([3]; 2 days): 100% | Abnormal or dead termite rate (%) ([3]; 3 days): 100% | Abnormal or dead termite rate (%) ([3]; 7 days): 100% | Abnormal or dead termite rate (%) ([4]; after 1 day): 0% | Abnormal or dead termite rate (%) ([4]; after 3 days): 0% | Abnormal or dead termite rate (%) ([4]; after 7 days): 19% | Abnormal or dead termite rate (%) ([4]; after 14 days): 30% | Abnormal or dead termite rate (%) ([4]; after 21 days): 31%
